Reference: PubChem BioAssay (NCI)
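Here, GI50 denotes the concentration required for 50% inhibition of growth. TGI is the concentration that stops growth completely.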

Legend:
Assay in all cases: DTP human tumour cell line panel, 384-well format
TK-10 renal = tested on: TK-10 renal
CAKI-1 renal = tested on: CAKI-1 renal
BT-549 breast = tested on: BT-549 breast
HOP-92 NSCLC = tested on: HOP-92 NSCLC
SNB-75 CNS = tested on: SNB-75 CNS
786-0 renal = tested on: 786-0 renal
NCI-H322M lung = tested on: NCI-H322M lung
SF-295 CNS = tested on: SF-295 CNS
CCRF-CEM leukemia = tested on: CCRF-CEM leukemia
SK-OV-3 ovarian = tested on: SK-OV-3 ovarian
RPMI-8226 leukemia = tested on: RPMI-8226 leukemia
OVCAR-8 ovarian = tested on: OVCAR-8 ovarian
T-47D breast = tested on: T-47D breast
A498 renal = tested on: A498 renal
SK-MEL-2 melanoma = tested on: SK-MEL-2 melanoma
KM12 colon = tested on: KM12 colon
OVCAR-4 ovarian = tested on: OVCAR-4 ovarian
SF-268 CNS = tested on: SF-268 CNS
HCT-15 colon = tested on: HCT-15 colon
MDA-MB-435 melanoma = tested on: MDA-MB-435 melanoma
SR leukemia = tested on: SR leukemia
K-562 leukemia = tested on: K-562 leukemia
SF-539 CNS = tested on: SF-539 CNS
OVCAR-5 ovarian = tested on: OVCAR-5 ovarian
NCI/ADR-RES ovarian = tested on: NCI/ADR-RES ovarian
U251 glioblastoma = tested on: U251 glioblastoma
HS 578T breast = tested on: HS 578T breast
SW-620 colon = tested on: SW-620 colon
SK-MEL-5 melanoma = tested on: SK-MEL-5 melanoma
HL-60(TB) leukemia = tested on: HL-60(TB) leukemia
ACHN renal = tested on: ACHN renal
MCF7 breast = tested on: MCF7 breast
OVCAR-3 ovarian = tested on: OVCAR-3 ovarian
HCT-116 colon = tested on: HCT-116 colon
RXF 393 renal = tested on: RXF 393 renal
NCI-H522 lung = tested on: NCI-H522 lung
PC-3 prostate = tested on: PC-3 prostate
NCI-H226 lung = tested on: NCI-H226 lung
UACC-62 melanoma = tested on: UACC-62 melanoma
LOX IMVI melanoma = tested on: LOX IMVI melanoma
SNB-19 CNS = tested on: SNB-19 CNS
UO-31 renal = tested on: UO-31 renal
MALME-3M melanoma = tested on: MALME-3M melanoma
HOP-62 NSCLC = tested on: HOP-62 NSCLC
MDA-MB-231 breast = tested on: MDA-MB-231 breast
A549 NSCLC = tested on: A549 NSCLC
EKVX NSCLC = tested on: EKVX NSCLC
NCI-H460 NSCLC = tested on: NCI-H460 NSCLC
DU-145 prostate = tested on: DU-145 prostate
IGROV1 ovarian = tested on: IGROV1 ovarian
HCC-2998 colon = tested on: HCC-2998 colon
MOLT-4 leukemia = tested on: MOLT-4 leukemia
MDA-MB-468 breast = tested on: MDA-MB-468 breast
M14 melanoma = tested on: M14 melanoma

Cc1cnc(NC2CCOCC2)nc1-n1cnc(C(=O)N[C@H](CN)c2cc(F)cc(Cl)c2)c1
GI50 (TK-10 renal): 0.0919 µM | TGI (TK-10 renal): 3.7 µM | GI50 (CAKI-1 renal): 0.0705 µM | TGI (CAKI-1 renal): 11.5 µM | GI50 (BT-549 breast): 2.21 µM | TGI (BT-549 breast): 13 µM | GI50 (HOP-92 NSCLC): 0.0238 µM | TGI (HOP-92 NSCLC): 0.0814 µM | GI50 (SNB-75 CNS): 11.4 µM | TGI (SNB-75 CNS): 23.6 µM | GI50 ([…]-0 renal): 2.2 µM | TGI (786-0 renal): 16.3 µM | GI50 (NCI-H322M lung): 0.0215 µM | TGI (NCI-H322M lung): 23.9 µM | GI50 (SF-295 CNS): 3.58 µM | TGI (SF-295 CNS): 16.3 µM | GI50 (CCRF-CEM leukemia): 1.47 µM | TGI (CCRF-CEM leukemia): 3.19 µM | GI50 (SK-OV-3 ovarian): 0.807 µM | TGI (SK-OV-3 ovarian): 15.4 µM | GI50 (RPMI-8226 leukemia): 2.55 µM | TGI (RPMI-8226 leukemia): 14.5 µM | GI50 (OVCAR-8 ovarian): 4.35 µM | TGI (OVCAR-8 ovarian): 19.7 µM | GI50 (T-47D breast): 15.6 µM | TGI (T-47D breast): 30.3 µM | GI50 (A498 renal): 0.405 µM | TGI (A498 renal): 12.1 µM | GI50 (SK-MEL-2 melanoma): < 0.01 µM | TGI (SK-MEL-2 melanoma): 0.0235 µM | GI50 (KM12 colon): 0.0295 µM | TGI (KM12 colon): 17.5 µM | GI50 (OVCAR-4 ovarian): 21.1 µM | TGI (OVCAR-4 ovarian): 48.5 µM | GI50 (SF-268 CNS): 6.61 µM | TGI (SF-268 CNS): 20.4 µM | GI50 (HCT-15 colon): 2.78 µM | TGI (HCT-15 colon): 20.8 µM | GI50 (MDA-MB-435 melanoma): 0.0181 µM | TGI (MDA-MB-435 melanoma): 17.9 µM | GI50 (SR leukemia): 2.54 µM | TGI (SR leukemia): 11 µM | GI50 (K-562 leukemia): 0.198 µM | TGI (K-562 leukemia): 2.52 µM | GI50 (SF-539 CNS): 2.05 µM | TGI (SF-539 CNS): 12.4 µM | GI50 (OVCAR-5 ovarian): < 0.01 µM | TGI (OVCAR-5 ovarian): 46.9 µM | GI50 (NCI/ADR-RES ovarian): 25.7 µM | TGI (NCI/ADR-RES ovarian): > 100 µM | GI50 (U251 glioblastoma): 0.0756 µM | TGI (U251 glioblastoma): 10.5 µM | GI50 (HS 578T breast): 0.509 µM | TGI (HS 578T breast): 21.1 µM | GI50 (SW-620 colon): 0.0225 µM | TGI (SW-620 colon): 10.5 µM | GI50 (SK-MEL-5 melanoma): 0.0173 µM | TGI (SK-MEL-5 melanoma): 4.58 µM | GI50 (HL-60(TB) leukemia): 0.0172 µM | TGI (HL-60(TB) leukemia): 1.24 µM | GI50 (ACHN renal): 1.27 µM | TGI (ACHN renal): 18 µM | GI50 (MCF7 breast): 1.09 µM | TGI (MCF7 breast): 13.2 µM | GI50 (OVCAR-3 ovarian): 1.05 µM | TGI (OVCAR-3 ovarian): 16.8 µM | GI50 (HCT-116 colon): < 0.01 µM | TGI (HCT-116 colon): 0.0348 µM | GI50 (RXF 393 renal): 1.59 µM | TGI (RXF 393 renal): 15 µM | GI50 (NCI-H522 lung): 0.0524 µM | TGI (NCI-H522 lung): 16.9 µM | GI50 (PC-3 prostate): 6.1 µM | TGI (PC-3 prostate): 20.2 µM | GI50 (NCI-H226 lung): 0.063 µM | TGI (NCI-H226 lung): 38.3 µM | GI50 (UACC-62 melanoma): < 0.01 µM | TGI (UACC-62 melanoma): 0.0412 µM | GI50 (LOX IMVI melanoma): < 0.01 µM | TGI (LOX IMVI melanoma): 0.0258 µM | GI50 (SNB-19 CNS): 3.68 µM | TGI (SNB-19 CNS): 21.5 µM | GI50 (UO-31 renal): 0.577 µM | TGI (UO-31 renal): 10.6 µM | GI50 (MALME-3M melanoma): < 0.01 µM | GI50 (HOP-62 NSCLC): 1.26 µM | TGI (HOP-62 NSCLC): 17.3 µM | GI50 (MDA-MB-231 breast): 0.0374 µM | TGI (MDA-MB-231 breast): 21.5 µM | GI50 (A549 NSCLC): 0.0423 µM | TGI (A549 NSCLC): 18.5 µM | GI50 (EKVX NSCLC): 0.524 µM | TGI (EKVX NSCLC): 14.4 µM | GI50 (NCI-H460 NSCLC): 0.0985 µM | TGI (NCI-H460 NSCLC): 13.6 µM | GI50 (DU-145 prostate): 0.768 µM | TGI (DU-145 prostate): 25.5 µM | GI50 (IGROV1 ovarian): 0.0403 µM | TGI (IGROV1 ovarian): 7.92 µM | GI50 (HCC-2998 colon): < 0.01 µM | TGI (HCC-2998 colon): 0.0123 µM | GI50 (MOLT-4 leukemia): 1.26 µM | TGI (MOLT-4 leukemia): 2.54 µM | GI50 (MDA-MB-468 breast): 0.351 µM | TGI (MDA-MB-468 breast): 2.32 µM | GI50 (M14 melanoma): < 0.01 µM | TGI (M14 melanoma): 0.0408 µM
